Reference: patent US20260174763A1, “PREPARATION METHOD AND USE OF A NOVEL TAXANE-BASED COMPOUND” (Jiangsu Jibeier Pharmaceutical Co., Ltd., priority 2023, published 2026)

Key:
[1] = test system: human pancreatic cancer cell line HPAF-II; assay: CTG proliferation inhibition, HPAF-II; type: cell-based; conditions: 72 h incubation, read-out: IC50 (nM) of the test compounds for various tumor cell lines
Procedure: (§1) Testing the inhibition effect of the compounds of Formula (I) and Formula II on the proliferation of various tumor cell lines by CTG method:
(§2) The CellTiter-Glo Luminescent Cell Viability Assay (CTG) method was used to test the inhibition effect of the compounds of Formula (I) and Formula II on the proliferation of various tumor cell lines, and IC50 value was calculated. The tumor cell lines included: human pancreatic cancer cell lines: SW1990, PANC-1, HPAF-II; human gastric cancer cell lines: NCI-N87, MGC-803; human esophageal cancer cell lines: KYSE-150, KYSE-410; human head-and-neck cancer cell lines: C666-1, Fadu; human breast cancer cell line: MDA-MB-231; human lung cancer cell line: A549; human adrenocortical carcinoma cell line: SW-13; human bladder cancer/urothelial carcinoma cell line: BIU-87, totally 13 tumor cell lines.
(§3) Experimental method: cells in logarithmic growth phase were obtained. The cell suspension was added to each well of a 96-well plate, placed in an incubator at 37° C. for overnight incubation. Complete mediums corresponding to each of the tumor cell lines were used to dilute the test compounds of […] and Formula II. The drugs were subjected to gradient dilution according to the following table. Culture medium containing the drug to be tested was added to the 96-well plate. Replicates were provided or each concentration in three wells; and a negative control well not containing the drug to be tested was provided. The 96-well plate was placed in incubator for incubation for 72 h and then added thereto a CTG reagent, with a blank control well provided. The substances in the wells were mixed evenly, and the cells were lysed and incubated at room temperature for 10 min. The […] signal value (Lum) was measured with a microplate reader.
(§4) Data processing and analysis: The software GraphPad Prism 8.0 was used to process the data graphically, calculate IC50, perform four-parameter non-linear regression analysis on the data, and map the corresponding dose-response curve. The equation for calculating cell viability is as below: […]

[2] = test system: human pancreatic cancer cell line PANC-1; assay: CTG proliferation inhibition, PANC-1; type: cell-based; conditions: 72 h incubation, read-out: IC50 (nM) of the test compounds for various tumor cell lines
Procedure: as §1, §2, §3, §4

[3] = test system: human esophageal cancer cell line KYSE-410; assay: CTG proliferation inhibition, KYSE-410; type: cell-based; conditions: 72 h incubation, read-out: IC50 (nM) of the test compounds for various tumor cell lines
Procedure: as §1, §2, §3, §4

[4] = test system: human bladder cancer/urothelial carcinoma cell line BIU-87; assay: CTG proliferation inhibition, BIU-87; type: cell-based; conditions: 72 h incubation, read-out: IC50 (nM) of the test compounds for various tumor cell lines
Procedure: as §1, §2, §3, §4

[5] = test system: human adrenocortical carcinoma cell line SW-13; assay: CTG proliferation inhibition, SW-13; type: cell-based; conditions: 72 h incubation, read-out: IC50 (nM) of the test compounds for various tumor cell lines
Procedure: as §1, §2, §3, §4

[6] = test system: human gastric cancer cell line MGC-803; assay: CTG proliferation inhibition, MGC-803; type: cell-based; conditions: 72 h incubation, read-out: IC50 (nM) of the test compounds for various tumor cell lines
Procedure: as §1, §2, §3, §4

[7] = test system: human breast cancer cell line MDA-MB-231; assay: CTG proliferation inhibition, MDA-MB-231; type: cell-based; conditions: 72 h incubation, read-out: IC50 (nM) of the test compounds for various tumor cell lines
Procedure: as §1, §2, §3, §4

[8] = test system: human gastric cancer cell line NCI-N87; assay: CTG proliferation inhibition, NCI-N87; type: cell-based; conditions: 72 h incubation, read-out: IC50 (nM) of the test compounds for various tumor cell lines
Procedure: as §1, §2, §3, §4

[9] = test system: human pancreatic cancer cell line SW1990; assay: CTG proliferation inhibition, SW1990; type: cell-based; conditions: 72 h incubation, read-out: IC50 (nM) of the test compounds for various tumor cell lines
Procedure: as §1, §2, §3, §4

[10] = test system: human esophageal cancer cell line KYSE-150; assay: CTG proliferation inhibition, KYSE-150; type: cell-based; conditions: 72 h incubation, read-out: IC50 (nM) of the test compounds for various tumor cell lines
Procedure: as §1, §2, §3, §4

[11] = test system: human lung cancer cell line A549; assay: CTG proliferation inhibition, A549; type: cell-based; conditions: 72 h incubation, read-out: IC50 (nM) of the test compounds for various tumor cell lines
Procedure: as §1, §2, §3, §4

[12] = test system: human head-and-neck cancer cell line Fadu; assay: CTG proliferation inhibition, Fadu; type: cell-based; conditions: 72 h incubation, read-out: IC50 (nM) of the test compounds for various tumor cell lines
Procedure: as §1, §2, §3, §4

[13] = test system: human head-and-neck cancer cell line C666-1; assay: CTG proliferation inhibition, C666-1; type: cell-based; conditions: 72 h incubation, read-out: IC50 (nM) of the test compounds for various tumor cell lines
Procedure: as §1, §2, §3, §4

advanced breast cancer = conditions: clinical outcome; cited from earlier work
[14] = test system: advanced non-small cell lung cancer; conditions: clinical outcome; cited from earlier work
tumor cell = conditions: compared with paclitaxel; cited from earlier work
advanced ovarian cancer = conditions: clinical outcome; cited from earlier work

IC50 [1] | IC50 [2] | IC50 [3] | IC50 [4] | IC50 [5] | IC50 [6] | IC50 [7] | IC50 [8] | IC50 [9] | IC50 [10] | IC50 [11] | IC50 [12] | IC50 [13] | Compound | effective rate (advanced breast cancer) | effective rate [14] | ability to inhibit cell division relative to paclitaxel (tumor cell) | tumor cell proliferation inhibition rate relative to paclitaxel (tumor cell) | effective rate (advanced ovarian cancer)
4.45 nM | 2.27 nM | 1.26 nM | 12.1 nM | 1.57 nM | 0.187 nM | 5.46 nM | 28.2 nM | 6.34 nM | 1.99 nM | 41.9 nM | 2.64 nM | 16 nM | CC(=O)OC12COC1CC(O)C1(C)C(=O)C(OC(=O)Nc3ccc(C(C)O)cc3)C3=C(C)C(OC(=O)C(O)C(NC(=O)OC(C)(C)C)c4ccccc4)CC(O)(C(OC(=O)c4ccccc4)C21)C3(C)C (centres unmarked) [Compound I-1] | – | – | – | – | –
8.65 nM | 2.89 nM | 0.101 nM | 29.1 nM | 6.12 nM | 3.4 nM | 0.042 nM | 7.46 nM | 3.1 nM | 1.75 nM | 11.7 nM | 4.15 nM | 7.34 nM | CC(=O)OC12COC1CC(O)C1(C)C(=O)C(OC(=O)Nc3ccc(C(C)O)cc3)C3=C(C)C(OC(=O)C(O)C(NC(=O)OC(C)(C)C)c4ccccc4)CC(O)(C(OC(=O)c4ccccc4)C21)C3(C)C (centres unmarked) [Compound I-2] | – | – | – | – | –
2.22 nM | 0.814 nM | 0.084 nM | 0.319 nM | 2.69 nM | 2.08 nM | 6.61 nM | 8.3 nM | 0.916 nM | 0.376 nM | 25.3 nM | 0.657 nM | 10.5 nM | CC(=O)OC12COC1CC(O)C1(C)C(=O)C(OC(=O)Nc3ccc(C(C)O)cc3)C3=C(C)C(OC(=O)C(O)C(NC(=O)OC(C)(C)C)c4ccccc4)CC(O)(C(OC(=O)c4ccccc4)C21)C3(C)C (centres unmarked) [Compound I-3] | – | – | – | – | –
2.18 nM | 0.549 nM | 0.097 nM | 17.5 nM | 9.12 nM | 4.99 nM | 12.6 nM | 18.8 nM | 6.4 nM | 0.726 nM | 12.4 nM | 8.62 nM | 12.1 nM | CC(=O)OC12COC1CC(O)C1(C)C(=O)C(OC(=O)Nc3ccc(C(C)O)cc3)C3=C(C)C(OC(=O)C(O)C(NC(=O)OC(C)(C)C)c4ccccc4)CC(O)(C(OC(=O)c4ccccc4)C21)C3(C)C (centres unmarked) [Compound I-4] | – | – | – | – | –
10.7 nM | 1.41 nM | 0.016 nM | 17.7 nM | 4.75 nM | 0.635 nM | 2.91 nM | 11.4 nM | 12.7 nM | 0.808 nM | 5.64 nM | 4.76 nM | 3.39 nM | CC(=O)OC12COC1CC(O)C1(C)C(=O)C(OC(=O)Nc3ccc(C(C)O)cc3)C3=C(C)C(OC(=O)C(O)C(NC(=O)OC(C)(C)C)c4ccccc4)CC(O)(C(OC(=O)c4ccccc4)C21)C3(C)C (centres unmarked) [Compound I-5] | – | – | – | – | –
11 nM | 0.878 nM | 0.02 nM | 30.1 nM | 8.48 nM | 3.49 nM | 11.7 nM | 12.9 nM | 12.2 nM | 0.123 nM | 18.9 nM | 12.8 nM | 3.03 nM | CC(=O)OC12COC1CC(O)C1(C)C(=O)C(OC(=O)Nc3ccc(C(C)O)cc3)C3=C(C)C(OC(=O)C(O)C(NC(=O)OC(C)(C)C)c4ccccc4)CC(O)(C(OC(=O)c4ccccc4)C21)C3(C)C (centres unmarked) [Compound I-6] | – | – | – | – | –
3.11 nM | 0.888 nM | 0.1 nM | 10.2 nM | 7.36 nM | 4.93 nM | 13 nM | 10.9 nM | 6.73 nM | 0.972 nM | 60.2 nM | 6.47 nM | 9.19 nM | CC(=O)OC12COC1CC(O)C1(C)C(=O)C(OC(=O)Nc3ccc(C(C)O)cc3)C3=C(C)C(OC(=O)C(O)C(NC(=O)OC(C)(C)C)c4ccccc4)CC(O)(C(OC(=O)c4ccccc4)C21)C3(C)C (centres unmarked) [Compound I-7] | – | – | – | – | –
9.05 nM | 0.007 nM | 0.032 nM | 12.7 nM | 10.1 nM | 0.844 nM | 6.57 nM | 14.7 nM | 14.2 nM | 1.7 nM | 27.1 nM | 9.16 nM | 10.5 nM | CC(=O)OC12COC1CC(O)C1(C)C(=O)C(OC(=O)Nc3ccc(C(C)O)cc3)C3=C(C)C(OC(=O)C(O)C(NC(=O)OC(C)(C)C)c4ccccc4)CC(O)(C(OC(=O)c4ccccc4)C21)C3(C)C (centres unmarked) [Compound I-8] | – | – | – | – | –
– | – | – | – | – | – | – | – | – | – | – | – | – | CC(=O)O[C@@]12CO[C@@H]1C[C@H](O)[C@@]1(C)C(=O)[C@H](O)C3=C(C)[C@@H](OC(=O)[C@H](O)[C@@H](NC(=O)OC(C)(C)C)c4ccccc4)C[C@@](O)([C@@H](OC(=O)c4ccccc4)[C@H]21)C3(C)C [docetaxel, Docetaxel] | 60% | 31% | twice that of paclitaxel | 10 times | 30%

Compound | IC50 [1] | IC50 [2] | IC50 [3] | IC50 [4] | IC50 [5] | IC50 [6] | IC50 [7] | IC50 [8] | IC50 [9] | IC50 [10] | IC50 [11] | IC50 [12] | IC50 [13] | effective rate (advanced breast cancer) | effective rate [14] | ability to inhibit cell division relative to paclitaxel (tumor cell) | tumor cell proliferation inhibition rate relative to paclitaxel (tumor cell) | effective rate (advanced ovarian cancer)
CC(=O)OC12COC1CC(O)C1(C)C(=O)C(OC(=O)Nc3ccc(C(C)=O)cc3)C3=C(C)C(OC(=O)C(O)C(NC(=O)OC(C)(C)C)c4ccccc4)CC(O)(C(OC(=O)c4ccccc4)C21)C3(C)C (centres unmarked) [II, reference compound] | 12.6 nM | 3.35 nM | 0.113 nM | 30.5 nM | 12.5 nM | 5.34 nM | 20.9 nM | 20.8 nM | 15.5 nM | 1.9 nM | 60.5 nM | 16.7 nM | 12.8 nM | – | – | – | – | –
